US7179823B1, “5-membered n-heterocyclic compounds with hypoglycemic and hypolipidemic activity” (Takeda Pharmaceutical Company Limited, priority 1999, dated 2007)

melting point [°C] | SMILES
119 to 120 | CCOC(=O)/C=C/c1cn(Cc2ccc3cc(OCc4ccccc4)ccc3c2)cc1-c1ccccc1 [Example 52, ethyl(E)-3-[1-(6-benzyloxy-2-naphthylmethyl)-4-phenyl-3-pyrrolyl]propenoate]
122 to 123 | Cc1oc(-c2ccccc2)nc1COc1ccc2cc(Cn3cc(CCC(=O)O)c(-c4ccccc4)c3)ccc2c1 [Example 54, 3-[1-[6-(5-methyl-2-phenyl-4-oxazolylmethoxy)-2-naphthylmethyl]-4-phenyl-3-pyrrolyl]propionic acid]
143 to 144 | O=C(O)CCc1cn(Cc2ccc3cc(OCc4ccccc4F)ccc3c2)cc1-c1ccccc1 [Example 56, 3-[1-[6-(2-fluorobenzyloxy)-2-naphthylmethyl]-4-phenyl-3-pyrrolyl]propionic acid]
158 to 159 | O=C(O)CCc1cn(Cc2ccc3cc(OCc4cccnc4)ccc3c2)cc1-c1ccccc1 [Example 58, 3-[4-phenyl-1-[6-(3-pyridylmethoxy)-2-naphthylmethyl]-3-pyrrolyl]propionic acid]
163 to 164 | Cc1ncccc1COc1ccc2cc(Cn3cc(CCC(=O)O)c(-c4ccccc4)c3)ccc2c1 [Example 60, 3-[1-[6-(2-methyl-3-pyridylmethoxy)-2-naphthylmethyl]-4-phenyl-3-pyrrolyl]propionic acid]
155 to 156 | Cc1oc(-c2ccccc2)nc1COc1ccc(Cn2cc(CCC(=O)O)c(-c3ccccn3)c2)cc1 [Example 64, 3-[1-[4-(5-methyl-2-phenyl-4-oxazolylmethoxy)benzyl]-4-(2-pyridyl)-3-pyrrolyl]propionic acid]
111 to 112 | COc1cc(Cn2cc(CCC(=O)O)c(-c3ccccc3)c2)cc(OCc2csc(-c3cnccn3)n2)c1 [Example 71, 3-[1-[3-methoxy-5-[2-(2-pyrazinyl)-4-thiazolylmethoxy]benzyl]-4-phenyl-3-pyrrolyl]propionic acid]
97 to 98 | CCOc1cc(Cn2cc(CCC(=O)O)c(-c3ccccc3)c2)cc(OCc2csc(-c3cnccn3)n2)c1 [Example 73, 3-[1-[3-ethoxy-5-[2-(2-pyrazinyl)-4-thiazolylmethoxy]benzyl]-4-phenyl-3-pyrrolyl]propionic acid]
109 to 110 | O=C(O)CCc1cn(Cc2cc(OCc3ccccc3)cc(OCc3csc(-c4cnccn4)n3)c2)cc1-c1ccccc1 [Example 75, 3-[1-[3-benzyloxy-5-[2-(2-pyrazinyl)-4-thiazolylmethoxy]benzyl]-4-phenyl-3-pyrrolyl]propionic acid]
102 to 103 | CCOC(=O)c1cn(Cc2ccc(OCc3ccccc3)cc2)nc1-c1ccccc1 [Example 76, ethyl 1-(4-benzyloxybenzyl)-3-phenyl-1H-pyrazole-4-carboxylate]
147 to 148 | O=C(O)CCc1cn(Cc2ccc(OCc3ccccc3)cc2)nc1-c1ccccc1 [Example 77, 3-[1-(4-benzyloxybenzyl)-3-phenyl-1H-pyrazol-4-yl]propionic acid]
154 to 155 | Cc1oc(-c2ccncc2)nc1COc1ccc(Cn2cc(CCC(=O)O)c(-c3ccccc3)n2)cc1 [Example 83, 3-[1-[4-[5-methyl-2-(4-pyridyl)-4-oxazolylmethoxy]benzyl]-3-phenyl-1H-pyrazol-4-yl]propionic acid]
166 to 167 | O=C(O)CCc1cn(Cc2ccc(OCc3noc(-c4ccccc4)n3)cc2)nc1-c1ccccc1 [Example 85, 3-[3-phenyl-1-[4-(5-phenyl-1,2,4-oxadiazole-3-ylmethoxy)benzyl]-1H-pyrazol-4-yl]propionic acid]
112 to 113 | O=C(O)CCc1cn(Cc2ccc(OCc3cccnc3)cc2)nc1-c1ccccc1 [Example 91, 3-[3-phenyl-1-[4-(3-pyridylmethoxy)benzyl]-1H-pyrazol-4-yl]propionic acid]
152 to 153 | O=C(O)c1cn(Cc2ccc(OCc3ccccc3)cc2)nc1-c1ccccc1 [Example 92, 1-(4-benzyloxybenzyl)-3-phenyl-1H-pyrazol-4-carboxylic acid]
165 to 166 | Cc1oc(-c2ccccc2)nc1COc1ccc(Cn2cc(C(=O)O)c(-c3ccccc3)n2)cc1 [Example 93, 1-[4-(5-methyl-2 phenyl-4-oxazolylmethoxy)benzyl]-3-phenyl-1H-pyrazol-4-carboxylic acid]
119 to 120 | O=C(O)c1cn(Cc2ccc(OCc3csc(-c4ccccc4)n3)cc2)nc1-c1ccccc1 [Example 94, 3-phenyl-1-[4-(2-phenyl-4-thiazolylmethoxy)benzyl]-1H-pyrazol-4-carboxylic acid]
118 to 119 | Cc1oc(-c2ccccc2)nc1COc1ccc(Cn2cc(CCCC(=O)O)c(-c3ccccc3)n2)cc1 [Example 96, 4-[1-[4-(5-methyl-2-phenyl-4-oxazolylmethoxy)benzyl]-3-phenyl-1H-pyrazole-4-yl]butanoic acid]
109 to 110 | Cc1oc(-c2ccccc2)nc1COc1ccc(Cn2cc(CCCCC(=O)O)c(-c3ccccc3)n2)cc1 [Example 97, 5-[1-[4-(5-methyl-2-phenyl-4-oxazolylmethoxy)benzyl]-3-phenyl-1H-pyrazol-4-yl]pentanoic acid]
149 to 150 | Cc1oc(-c2ccccc2)nc1COc1ccc(Cn2cc(CCC(=O)O)c(-c3ccc(C(F)(F)F)cc3)n2)cc1 [Example 98, 3-[1-[4-(5-methyl-2-phenyl-4-oxazolylmethoxy)benzyl]-3-(4-trifluoromethylphenyl)-1H-pyrazol-4-yl]propionic acid]

Further lines, the compound ahead of its results:

SMILES | melting point [°C]
Cc1oc(-c2ccccc2)nc1COc1ccc(Cn2cc(/C=C/C(=O)O)c(-c3ccccc3)c2)cc1 [Example 5, (E)-3-[1-[4-(5-methyl-2-phenyl-4-oxazolylmethoxy)benzyl]-4-phenyl-3-pyrrolyl]propenoic acid] | 154 to 155
O=C(O)CCc1cn(Cc2ccc(OCc3ccccc3)cc2)cc1-c1ccccc1 [Example 10, 3-[1-(4-benzyloxybenzyl)-4-phenyl-3-pyrrolyl]propionic acid] | 130 to 131
O=C(O)CCc1cn(Cc2ccc(OCc3ccccn3)cc2)cc1-c1ccccc1 [Example 11, 3-[4-phenyl-1-[4-(2-pyridylmethoxy)benzyl]-3-pyrrolyl]propionic acid] | 109 to 110
O=C(O)CCc1cn(Cc2ccc(OCc3ccncc3)cc2)cc1-c1ccccc1 [Example 13, 3-[4-phenyl-1-[4-(4-pyridylmethoxy)benzyl]-3-pyrrolyl]propionic acid] | 124 to 125
Cc1oc(-c2ccccc2)nc1CCOc1ccc(Cn2cc(CCC(=O)O)c(-c3ccccc3)c2)cc1 [Example 14, 3-[1-[4-[2-(5-methyl-2-phenyl-4-oxazolyl)ethoxy]benzyl]-4-phenyl-3-pyrrolyl]propionic acid] | 147 to 148
O=C(O)CCc1cn(Cc2ccc(OCc3csc(-c4cnccn4)n3)cc2)cc1-c1ccccc1 [Example 16, 3-[4-phenyl-1-[4-[2-(2-pyrazinyl)-4-thiazolylmethoxy]benzyl]-3-pyrrolyl]propionic acid] | 137 to 138
O=C(O)CCc1cn(Cc2ccc(OCc3ccoc3)cc2)cc1-c1ccccc1 [Example 18, 3-[1-[4-(3-furylmethoxy)benzyl]-4-phenyl-3-pyrrolyl]propionic acid] | 110 to 111
O=C(O)CCc1cn(Cc2ccc(OCc3cccs3)cc2)cc1-c1ccccc1 [Example 20, 3-[4-phenyl-1-[4-(2-thienylmethoxy)benzyl]-3-pyrrolyl]propionic acid] | 127 to 128
O=C(O)CCc1cn(Cc2ccc(OCc3ccsc3)cc2)cc1-c1ccccc1 [Example 22, 3-[4-phenyl-1-[4-(3-thienylmethoxy)benzyl]-3-pyrrolyl]propionic acid] | 118 to 119
Cc1ncccc1COc1ccc(Cn2cc(CCC(=O)O)c(-c3ccccc3)c2)cc1 [Example 26, 3-[1-[4-(2-methyl-3-pyridylmethoxy)benzyl]-4-phenyl-3-pyrrolyl]propionic acid] | 158 to 159
Cc1sc(-c2ccccc2)nc1COc1ccc(Cn2cc(CCC(=O)O)c(-c3ccccc3)c2)cc1 [Example 28, 3-[1-[4-(5-methyl-2-phenyl-4-thiazolylmethoxy)benzyl]-4-phenyl-3-pyrrolyl]propionic acid] | 157 to 158
O=C(O)CCc1cn(Cc2ccc(OCc3csc(-c4ccccn4)n3)cc2)cc1-c1ccccc1 [Example 32, 3-[4-phenyl-1-[4-[2-(2-pyridyl)-4-thiazolylmethoxy)benzyl]-3-pyrrolyl]propionic acid] | 117 to 118
O=C(O)CCc1cn(Cc2ccc(OCc3csc(-c4ccncc4)n3)cc2)cc1-c1ccccc1 [Example 34, 3-[4-phenyl-1-[4-[2-(4-pyridyl)-4-thiazolylmethoxy)benzyl]-3-pyrrolyl]propionic acid] | 149 to 150
O=C(O)CCc1cn(Cc2ccc(OCc3cccc(-c4cnccn4)c3)cc2)cc1-c1ccccc1 [Example 36, 3-[4-phenyl-1-[4-[3-(2-pyrazinyl)benzyloxy]benzyl]-3-pyrrolyl]propionic acid] | 91 to 92
Cc1nc(COc2ccc(Cn3cc(CCC(=O)O)c(-c4ccccc4)c3)cc2)cs1 [Example 42, 3-[1-[4-(2-methyl-4-thiazolylmethoxy]benzyl]-4-phenyl-3-pyrrolyl]propionic acid] | 113 to 114
O=C(O)CCc1cn(Cc2ccc(OCc3csc(-c4cccnc4)n3)cc2)cc1-c1ccccc1 [Example 46, 3-[4-phenyl-1-[4-[2-(3-pyridyl)-4-thiazolylmethoxy]benzyl]-3-pyrrolyl]propionic acid] | 118 to 119
CN(CCOc1ccc(Cn2cc(CCC(=O)O)c(-c3ccccc3)c2)cc1)c1ccccn1 [Example 49, 3-[1-[4-[2-[N-methyl-N-(2-pyridyl)amino]ethoxy]benzyl]-4-phenyl-3-pyrrolyl]propionic acid] | 110 to 111
O=C(O)c1cn(Cc2cccc(Oc3ccccc3)c2)nc1-c1ccccc1 [Example 50, 1-(3-phenoxybenzyl)-3-phenyl-1H-pyrazole-4-carboxylic acid] | 148 to 149
